Values quoted from earlier work in PMC4686915, “An engineered scorpion toxin analogue with improved Kv1.3 selectivity displays reduced conformational flexibility” (Scientific Reports, 2015).
pKd: −log10 of the molar value. Where two headings read alike, the source gives them in different places.

Key:
Kv1.2 = target: Kv1.2
Source text: (§1) Anuroctoxin (AnTx, αKTx 6.12) is a peptide toxin of 35 amino acids with a molecular weight of 4082.8, stabilized by four disulphide bridges, which was isolated by our workgroup from the venom of the scorpion Anuroctonus phaiodactylus. […] Our aim was to improve the selectivity of the wild-type toxin for Kv1.3 by site-directed changes in the primary sequence of the peptide. || Figure 1 Sequence comparison of Kv1.2- and Kv1.3-selective toxins. The aligned primary sequences are shown for toxins for which the affinities for both Kv1.2 and Kv1.3 channels were determined. Toxins were classified as Kv1.2-selective, non-selective or Kv1.3-selective based on the ratio of the determined Kd values for the two channels. TEXT PRINTED IN THE PICTURE: maurotoxin: KdKv1.2/KdKv1.3: 0.004; KdKv1.2 (nM): 0.8; KdKv1.3 (nM): 180; selectivity: Kv1.2 | CoTX1: KdKv1.2/KdKv1.3: 0.005; KdKv1.2 (nM): 27; K ... || First we aimed at reproducing the effects of natural anuroctoxin with the wild-type toxin produced by solid-state chemical synthesis, denoted as sAnTx. The blocking effect of sAnTx was first tested on Kv1.3 channels expressed by activated human lymphocytes. Channels were activated by depolarizing pulses to +50 mV to maximize the open probability and pulse duration was limited to 15 ms to minimize inactivation. The use of such short pulses prevented cumulative inactivation and allowed us to record the current amplitude every 15 s giving better temporal resolution of the kinetics of block develo ... || (+ 1 further places)

Kv1.3 [1] = target: T1, Kv1.3 (Homo sapiens, UniProt P22001); set-up: endogenous in cells; conditions: for selectivity class: Figure 1, based on ratio of Kd values for Kv1.2 and Kv1.3, ref not given; for block of Kv1.3, in words: toxins with tyrosine at the aromatic dyad position, ref 10 (ChTx), 13 (Css20), 32 (Tst26), 33 (noxiustoxin), 34 (hongotoxin-1), 30 (Pi1)
Source text: as §1, with “(+ 3” for “(+ 1”

Kv1.3 [2] = target: T1, Kv1.3
Kv1.2 (Homo sapiens) = Kv1.2 (Homo sapiens) (UniProt P16389)
hKv1.2 V381H = test system: hKv1.2 V381H
Source text: (§2) We first targeted the essential dyad to improve selectivity. […] While the necessity of the dyad lysine was shown for other Kv channels as well[10], the requirement for the aromatic half of the dyad, especially the tyrosine, is not as straightforward for blocking Kv1.3.

hKv1.3 H399T = test system: hKv1.3 H399T
Source text: as §2

[3] = Figure 1 sequence comparison, literature toxins, ref not given, read-out: KdKv1.2
[4] = Figure 1 sequence comparison, literature toxins, ref not given
[5] = Figure 1 sequence comparison, literature toxins, ref not given, read-out: KdKv1.3

T1 sequence (P22001 whole entry): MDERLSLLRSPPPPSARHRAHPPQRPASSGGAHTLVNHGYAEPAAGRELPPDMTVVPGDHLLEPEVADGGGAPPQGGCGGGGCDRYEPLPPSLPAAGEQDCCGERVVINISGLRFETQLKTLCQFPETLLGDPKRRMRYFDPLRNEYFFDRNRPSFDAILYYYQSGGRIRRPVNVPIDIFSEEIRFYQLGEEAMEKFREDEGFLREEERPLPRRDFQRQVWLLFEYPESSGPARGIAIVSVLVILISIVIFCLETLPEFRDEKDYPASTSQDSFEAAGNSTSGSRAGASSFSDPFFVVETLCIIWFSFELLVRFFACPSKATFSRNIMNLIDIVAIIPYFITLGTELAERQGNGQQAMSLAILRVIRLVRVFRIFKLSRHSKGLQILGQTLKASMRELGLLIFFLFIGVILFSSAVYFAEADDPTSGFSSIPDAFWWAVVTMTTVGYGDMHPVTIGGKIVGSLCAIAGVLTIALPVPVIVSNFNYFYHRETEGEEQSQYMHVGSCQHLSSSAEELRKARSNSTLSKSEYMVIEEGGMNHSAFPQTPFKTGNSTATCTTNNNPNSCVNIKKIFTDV
anuroctoxin, sequence (P0C166 whole entry): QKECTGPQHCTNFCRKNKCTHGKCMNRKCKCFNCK
Kv1.2 (Homo sapiens), sequence (P16389 whole entry): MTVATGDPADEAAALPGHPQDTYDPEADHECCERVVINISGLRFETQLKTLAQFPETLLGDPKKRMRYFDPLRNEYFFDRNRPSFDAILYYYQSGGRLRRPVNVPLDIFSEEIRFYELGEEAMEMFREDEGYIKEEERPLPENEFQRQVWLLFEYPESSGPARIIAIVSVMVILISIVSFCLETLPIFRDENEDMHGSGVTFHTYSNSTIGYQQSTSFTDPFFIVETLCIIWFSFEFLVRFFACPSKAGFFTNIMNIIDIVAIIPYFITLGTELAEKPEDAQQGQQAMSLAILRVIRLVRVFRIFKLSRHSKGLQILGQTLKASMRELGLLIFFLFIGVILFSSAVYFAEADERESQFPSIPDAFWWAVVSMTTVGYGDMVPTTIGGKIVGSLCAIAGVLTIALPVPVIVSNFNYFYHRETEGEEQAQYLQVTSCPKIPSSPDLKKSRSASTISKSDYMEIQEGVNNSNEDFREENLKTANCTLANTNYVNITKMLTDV

Substance	pKd (Kv1.2; [3])	selectivity class (Kv1.3 [1])	KdKv1.2/KdKv1.3 (Kv1.3 [1]; [4])	pKd (Kv1.3 [1]; [5])	block of Kv1.3, in words (Kv1.3 [1])	pKd (Kv1.3 [2])	pKd (Kv1.2 (Homo sapiens))	pKd (Kv1.2; listed as natural toxin, read-out: Kd Kv1.2 of natural anuroctoxin)	pKd (Kv1.3 [1]; listed as natural toxin, read-out: Kd Kv1.3 of natural anuroctoxin)	selectivity of the natural toxin for Kv1.3 over Kv1.2 (Kv1.3 [1]; natural toxin) [fold]	MTX binding affinity of hKv1.2 with V381H mutation (hKv1.2 V381H)	MTX sensitivity of Kv1.3 with H399T replacement (hKv1.3 H399T)
Hongotoxin-1	9.77	non-selective (non-selective)	1.9	10.05	nanomolar range	–	–	–	–	–	–	–
Noxiustoxin (TIINVKCTSPKQCSKPCKELYGSSAGAKCMNGKCKCYNN; UniProt P08815 1-39, looked up) [scorpion toxin]	8.70	non-selective (non-selective)	2	9.00	nanomolar range	–	–	–	–	–	–	–
anuroctoxin (from UniProt P0C166)	–	–	–	–	–	9.14	8.21	–	–	–	–	–
anuroctoxin [AnTx]	8.22	non-selective (non-selective)	9	–	–	–	–	8.21	9.15	9	–	–
charybdotoxin [ChTx]	7.85	non-selective (non-selective)	5.4	8.59	nanomolar range	–	–	–	–	–	–	–
kaliotoxin [KTX]	< 6.00	Kv1.3 (Kv1.3-selective)	> 1538	9.19	–	–	–	–	–	–	–	–
maurotoxin	9.10	Kv1.2 (Kv1.2-selective)	0.004	6.74	–	–	–	–	–	–	drastically reduced MTX binding affinity	made Kv1.3 sensitive to MTX
